Inconclusive results are not listed. Active and inactive are the calls of the source.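 How the source made its calls: active means compound lowering the normal-ribosome reporter at least twice as much as the humanized-ribosome reporter, growth loss under a set limit; inconclusive means no clear call, values can overlap the other calls; inactive means the rest.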
Assays:
Experiment in all cases: wild-type E. coli growth inhibition versus h34 humanized strain – h34 mutant RFP, wild-type GFP, cherry-pick, dose response (AID 977624);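 further: wild-type GFP strain co-cultured with humanized h34 ribosome RFP strain in same well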
[1] = tested on: E. coli h34 humanized ribosome mutant RFP strain growth, fluorescence, 24 h
[2] = tested on: E. coli mixed culture (wild-type GFP + h34 RFP) total growth, OD600, 24 h; settings: E. coli mixed culture (wild-type GFP + h34 RFP), 24 h
[3] = tested on: E. coli wild-type GFP strain growth, fluorescence, 24 h
[4] = measured here: total OD600 growth

## CCCC(=O)Nc1sc2c(c1C(=O)Nc1ccccn1)CCCC2
[1]
  AC50: > 100 µM

## CCn1c(NC(=O)c2nn(C)cc2Br)nc2ccccc21
[1]
  AC50: 45.6 µM
[2]; [4]
  AC50: 50.3 µM
[3]
  AC50: > 100 µM (inactive)

## Cc1ccc(NS(=O)(=O)c2cc(C(=O)N3CCc4ccccc4C3)ccc2Cl)cc1
[1]
  AC50: 32.6 µM
[3]
  AC50: > 100 µM (inactive)

## CC(=O)c1c(N2CCOCC2)nc2ccc(Cl)cc2c1-c1ccccc1
[1]
  AC50: > 100 µM

## Cc1noc(C)c1S(=O)(=O)N(Cc1ccccc1)C(C)C
[1]
  AC50: > 100 µM

## O=S(=O)(NCC1CCCO1)c1ccc(-c2ccc(Cl)cc2)cc1 (stereo not given)
[1]
  AC50: 31.8 µM

## O=C(Nc1cccc(Cl)c1)c1ccc(S(=O)(=O)NCC2CCCO2)cc1 (stereo not given)
[1]
  AC50: 1.4 µM
[3]
  AC50: > 100 µM (inactive)

## Cc1cccc(N2CCN(Cc3nc(-c4ccc(F)cc4F)oc3C)CC2)n1
[1]
  AC50: 3.83 µM

## COCC#Cc1ccc2c(c1)O[C@H](CN(C)C(=O)c1ccccc1)[C@@H](C)CN([C@H](C)CO)S2(=O)=O
[1]
  AC50: > 100 µM

## CC(NCc1ccc(S(N)(=O)=O)cc1)C(=O)Nc1cc([N+](=O)[O-])ccc1Cl (stereo not given)
[1]
  AC50: > 100 µM
[3]
  AC50: > 100 µM (inactive)

## CC(C)(C)c1ccc(-c2noc(CCC(=O)NCc3ccco3)n2)cc1
[1]
  AC50: 2.76 µM

## CCc1cc2c(=O)n(Cc3ccccc3)c(SC3CCOC3=O)nc2s1 (stereo not given)
[1]
  AC50: 46.4 µM
[3]
  AC50: > 100 µM (inactive)

## CCOc1ccccc1NC(=O)c1ccc2ccccc2c1
[1]; E. coli wild-type GFP strain growth, fluorescence, 24 h, measured here: RFP h34 mutant, test 1
  AC50: > 100 µM
[2]; measured here: OD600, test 1
  AC50: 38.3 µM
[3]; measured here: GFP wild-type, test 1
  AC50: > 100 µM

## COc1ccc(-c2nc(NC(C)=O)sc2-c2ccccc2)cc1
[2]; [4]
  AC50: > 100 µM
[3]
  AC50: > 100 µM (inactive)

## CS(=O)(=O)Nc1ccccc1C(=O)NCCSc1ccccc1
[1]
  AC50: 51.2 µM

## O=C(c1cnc(Cc2c[nH]c3ccccc23)c(I)c1)N1CCCCC1
[2]; [4]
  AC50: > 100 µM
[3]
  AC50: > 100 µM (inactive)

## COc1ccccc1-c1nnc(C2CCN(S(=O)(=O)c3ccccc3[N+](=O)[O-])CC2)o1
[2]; [4]
  AC50: > 100 µM
[3]
  AC50: > 100 µM (inactive)

## c1ccc(-n2c(SCc3nc(-c4cccs4)no3)nnc2-c2ccco2)cc1
[2]; [4]
  AC50: > 100 µM
[3]
  AC50: > 100 µM (inactive)

## O=C(Nc1ccccc1Cl)c1ccc2c(c1)N(Cc1ccc(F)cc1)C(=O)CS2=O (stereo not given)
[1]
  AC50: 50 µM
[3]
  AC50: > 100 µM (inactive)

## O=c1[nH]c(C2CCN(S(=O)(=O)c3ccc4c(c3)OCCO4)CC2)nc2c1nnn2Cc1ccccc1F
[2]; [4]
  AC50: > 100 µM
[3]
  AC50: > 100 µM (inactive)

## C=CCN(c1ccccc1)S(=O)(=O)c1cccc2cccnc12
[1]
  AC50: 4.71 µM

## O=C(CSc1ccccc1)Nc1cccc(NC(=O)c2ccco2)c1
[2]; [4]
  AC50: > 100 µM
[3]
  AC50: > 100 µM (inactive)

## O=C1c2cccc(OCC(=O)N3CCCc4ccccc43)c2CCN1Cc1cccnc1
[2]; [4]
  AC50: > 100 µM
[3]
  AC50: > 100 µM (inactive)

## COc1cc(NC(=O)C(c2ccccc2)c2ccccc2)c(C(=O)O)cc1OC
[1]
  AC50: 36.4 µM
[3]
  AC50: > 100 µM (inactive)

## O=C(O)c1cccnc1SCc1ccccc1Cl
[2]; [4]
  AC50: > 100 µM
[3]
  AC50: > 100 µM (inactive)

## COc1cccc(N2CCN(c3ccc(S(=O)(=O)N4CCN(C)CC4)cc3[N+](=O)[O-])CC2)c1
[2]; [4]
  AC50: > 100 µM
[3]
  AC50: > 100 µM (inactive)

## Clc1ccc2nc(CN3CCCc4ccccc43)cn2c1
[2]; [4]
  AC50: 36.1 µM
[3]
  AC50: > 100 µM (inactive)

## O=C(c1ccc(N2CCCCC2)c([N+](=O)[O-])c1)N1CCN(c2ccccn2)CC1
[1]
  AC50: > 100 µM

## O=C(O)c1cc(-c2ccc(Cl)s2)nc2ccccc12
[2]; [4]
  AC50: > 100 µM
[3]
  AC50: > 100 µM (inactive)

## Cc1ccc(C2(c3noc(CN(C)Cc4cccnc4)n3)CCCC2)cc1
[2]; [4]
  AC50: > 100 µM
[3]
  AC50: > 100 µM (inactive)

## CCC1=Nc2cc(C(=O)NCc3cccnc3)ccc2Sc2ccc(C)cc21
[1]
  AC50: 32.6 µM
[3]
  AC50: > 100 µM (inactive)

## Cc1sc2ncnc(N3CCCC(C)C3)c2c1C (stereo not given)
[2]; [4]
  AC50: > 100 µM
[3]
  AC50: > 100 µM (inactive)

## COc1cccc(NC(=O)CSc2nc3c(sc4ccccc43)c(=O)n2CCN(C)C)c1
[1]
  AC50: > 100 µM

## CCOc1ccccc1N(CC(=O)Nc1ccccc1F)S(=O)(=O)c1ccccc1
[1]
  AC50: 52.1 µM
[3]
  AC50: > 100 µM (inactive)

## CCOc1ccc(OCCn2c(=S)[nH]c3c(N)ncnc32)cc1
[1]
  AC50: 17.3 µM
[3]
  AC50: > 100 µM (inactive)

## CCCCNc1ccc2c(c1)OC[C@@H](Cc1ccccc1)NS2(=O)=O
[2]; [4]
  AC50: 44.4 µM
[3]
  AC50: > 100 µM (inactive)

## Cc1nnc2sc(SCC(=O)Nc3ccc(Br)cc3)nn2c1=O
[1]
  AC50: > 100 µM
[3]
  AC50: > 100 µM (inactive)

## O=C(Nc1ccccc1N1CCN(C(=O)c2ccccc2)CC1)c1ccc([N+](=O)[O-])o1
[1]
  AC50: 1.97 µM
[3]
  AC50: > 100 µM (inactive)

## COc1ccc(OC2C(=O)N(Cc3ccc4c(c3)OCO4)C2c2cccs2)cc1 (stereo not given)
[2]; [4]
  AC50: > 100 µM
[3]
  AC50: > 100 µM (inactive)

## CC(C)n1nnnc1C1c2ccccc2C(=O)N1CCOc1ccccc1 (stereo not given)
[1]
  AC50: 5.87 µM

## COc1ccc(CCCc2nc3ccccc3[nH]2)cc1
[2]; [4]
  AC50: > 100 µM
[3]
  AC50: > 100 µM (inactive)

## COc1cc(OC)nc(Oc2ccccc2C(=O)Oc2ccc(C)cc2)n1
[1]
  AC50: 45.6 µM
[3]
  AC50: > 100 µM (inactive)

## Cc1cc(C)cc(NC(=O)c2cccc(NC(=O)c3ccco3)c2)c1
[2]; [4]
  AC50: > 100 µM
[3]
  AC50: > 100 µM (inactive)

## Cc1ccc(Cl)cc1N1CCN(C(=O)c2ccc3nc[nH]c3c2)CC1
[2]; [4]
  AC50: > 100 µM
[3]
  AC50: > 100 µM (inactive)

## O=C1NC(CCc2ccccc2)C(=O)N1Cc1cccc2ccccc12 (stereo not given)
[2]; [4]
  AC50: > 100 µM
[3]
  AC50: > 100 µM (inactive)

## O=C(Nc1ccccc1N1CCOCC1)C1CCCCN1S(=O)(=O)c1ccccc1 (stereo not given)
[1]
  AC50: > 100 µM

## Cc1ccccc1NS(=O)(=O)c1cc(C(=O)NCCC2=CCCCC2)ccc1C
[1]
  AC50: > 100 µM

## c1ccc(CN2CCN(C3CCCSc4ccccc43)CC2)cc1 (stereo not given)
[2]; [4]
  AC50: 50.3 µM
[3]
  AC50: > 100 µM (inactive)

## CC(C)Cn1c(=O)c2ccccc2c2ccccc2c1=O
[1]
  AC50: 7.44 µM
[3]
  AC50: > 100 µM (inactive)

## O=C(Nc1cccc(Oc2ccc3c(c2)C(=O)NC3=O)c1)c1cccs1
[2]; [4]
  AC50: > 100 µM
[3]
  AC50: > 100 µM (inactive)

## O=C(Nc1ccncc1)c1ccc(S(=O)(=O)Nc2ccccc2)cc1
[1]
  AC50: 46.5 µM

## CC(=O)N1CCN(c2cc(N3CCCC3)c(F)cc2[N+](=O)[O-])CC1
[2]; [4]
  AC50: > 100 µM
[3]
  AC50: > 100 µM (inactive)

## CCOC(=O)c1nc(C)sc1-c1ccnn1S(=O)(=O)c1cccc(Cl)c1
[2]; [4]
  AC50: 52.2 µM
[3]
  AC50: > 100 µM (inactive)

## COc1ccc(NC(=O)c2cccs2)cc1C(=O)N1CCN(c2ccccc2)CC1
[1]
  AC50: > 100 µM

## COC(=O)c1cc(S(=O)(=O)NCc2ccc3c(c2)OCO3)cn1C
[1]
  AC50: 52.4 µM
